Earlier results as cited in publication PMC11354262 (International Journal of Molecular Sciences, 2024).

Legend:
[1] = hydrolysis by enzymes in intestine and liver

logarithm of partition coefficient (log P): > 5
solubility in water: practically insoluble in water
lipid half-life [1]: about 25 min
SMILES: CCCCCCCCCCCCCCCC(=O)NCCO [PEA, Palmitoylethanolamide]
